Seven molecules from patent publication US20030023104A1, “Therapeutic compound - fatty acid conjugates” (COMMONWEALTH SCIENTIFIC AND INDUSTRIAL RESEARCH ORGANISATION, priority 1995, published 2003) can be followed below.

Data set [1] deals with UVB induced immunosuppression. Put plainly: Contact Hypersensitivity Assay (oxazolone, net ear swelling). The data set is classed as in vivo, mice. The settings on record: total 3 MED UVB. An excerpt: The assay used the method described in “Current Protocols in Immunology” (Vol 1, Section 4.2 Eds Coligan et al. (1991) NIH). The sensitiser was Oxazalone. Briefly this method was as follows:
UVB Radiation. Mice were irradiated with a single FL40SE UVB fluorescent tube (Oliphant) in a reflective batten, providing […] UVB radiation measured at target distance using an International Light IL1700 radiometer with a UVB detector sensitive between 250-315 nm. The mice received 0.1179 J/cm^2 UVB radiation, constituting 1 minimal erythemal dose (MED) as previously ascertained, on each of 3 consecutive days, being exposed unrestrained with the wire cage tops removed.
Induction of Systemic Contact Hypersensitivity. Test mice were exposed on the dorsum to 1 MED UVB radiation (or no UVB radiation) at the same hour on days 1, 2 and 3. On days 8 and 9, the mice (irradiated and non-irradiated) were sensitized by topical application to the abdominal skin of 0.1 ml of 3% (w/v) oxazolone (Sigma Chemical Co., St Louis, Mo.) freshly prepared in ethanol. On day 15, the pre-challenge ear thickness was measured using the spring micrometer, and the mice were then challenged by the application of 5 ul freshly prepared 3% oxazolone/ethanol solution to both surfaces of each pinna. Ear thickness was again measured repeatedly between 16-24 hours, and the maximum ear thickness was recorded. The net ear swelling was calculated as the difference between the average pre-challenge and the average post-challenge ear thickness for each treatment group. Statistical significance of the differences in net ear swelling between treatment groups was assessed with Student's t test.
The mice were painted with vehicle, 0.5 mg/mouse HC, 0.5 mg/mouse HC-Suc-GTP2. 1 mg/mouse 17-b HC-Suc-GTP3 or 17-b HC within 10 minutes post UVB exposure. A total of 3 MED of unshielded UVB was used. (Table 3)

For the next data set, the system named is UVB induced oedema. Put plainly: UVB erythema assay (net skin fold thickness). The settings on record: for activity equivalent to % of the hydrocortisone activity in protecting against UVB induced oedema: 0.5 mg/mouse, applied at Day 0, post UVB exposure. It is filed as in vivo, Skh-1 hairless albino female mice.
Another data set concerns B16 melanoma cells. Put plainly: Tumour Cytotoxicity Model (B16 melanoma in C57 mice). It is filed as in vivo, C57 black mice. Also on record: Mean (standard error) of B16 tumour volume adjusted for the variation in initial volume: scale not given here. The following applies: for Mean (standard error) of B16 tumour volume adjusted for the variation in initial volume: statistically modified tumour volume; for B16 Tumour Volume: individual mice. The protocol: Groups of C57 black mice were given an initiation dose of 2×10^5 B16 melanoma cells as an intradermal injection. The cells were suspended in MEM without serum. The abdomen was clipped and 100 μl of cells + MEM was injected. […] The tumours were measured with a micrometer and photographed just prior to the injection of drug (day 8-10).
The cytotoxic drugs and their fatty acid conjugates were dissolved or suspended in 4:1 soy bean oil:ethyl oleate. A 10 mg/ml or a 20 mg/ml solution of each parent drug or the fatty acid conjugate made to the same molar concentration as the parent drug was then injected into the same region as the tumour at a dose of 0.5 mg or 1 mg. The tumours were then photographed, measured and re-injected every two to three days.

Data set [2] relates to JURKAT cells (acute T cell human leukemia). The settings on record: for IC50 / activity (cytotoxicity) when delivered to cultures in ethanol: JURKAT; for IC50: drugs coated onto plates (Table 9); for activity (cytotoxicity) when delivered to cultures in ethanol: ethanol delivery. The protocol: The cytotoxicity of chlorambucil and chlorambucil fatty acid conjugates (CGTP1. P2 and P3) were tested in vitro with JURKAT cells (acute T cell human leukemia). Cells were incubated with drug and viability was determined by a colourmetric proliferation test. Cytotoxicity towards other cells lines was also tested (PC3 human prostate cancer cells, B16 mouse melanoma cells and human peripheral blood mononuclear cells).
JURKAT cells were seeded into 96-well plates at a density of 1.6×10^4 cells/200 μl complete RPMI ± drug and cultured for 64 h. A 1:3 split of confluent PC3 cells in a 75 cm^2 flask were seeded into a 96-well plate and cultured for 48 h in complete RPMI. Media was removed and complete RPMI ± drug was added to wells. Cells were further cultured for 72 h.
i) Ethanol. Drugs were dissolved in ethanol and added to culture media. The final concentration of ethanol in media was no greater than 1% (v/v). This delivery was used for experiments with JURKAT, PBMC, PC3 and B16 cell types.
ii) Coating of plates. Drugs were dissolved in ethanol and aliquots (up to 40 μl) were added to 90% (v/v) isopropanol. Solution (50 μl) was then added to wells of a 96-well plate and the solvent evaporated by heating at 37° C. Media ± cells was then added. This delivery was used for some experiments with JURKAT cells.
Viability was determined using the MTS assay (CellTiter 96TM AQueous Non-Radioactive Cell Proliferation Assay) from Promega. Reagent (40 μl) was added to each well and absorbance values at 490 nm were determined 1 to 4 h later. The effect of drug on cell viability was compared to cultures set up containing no drug (100% viability). Wells containing no cells were used to control for background absorbance (0% viability). Each concentration was tested in at least 3 wells. Concentrations necessary to cause a 50% inhibition of cellular growth of control cells (IC50) were calculated by linear regression.

The subject of data set [3] is JM (semi mature human T-cell from lymphoblastoid leukemia). Put plainly: Cell growth (cytotoxicity) in JM cells. The settings on record: 5 days, read-out: IC50 (concentration of drug which reduces cell growth by 50%). The data set is classed as cell-based. The protocol:
(§1) The anti-HIV activities of AZT-Suc-GTP1 and AZT-Suc-GTP2 were also tested. Infected cells were incubated for 5 days with compound. Compounds were dissolved in DMSO and 5-fold dilutions were used. The following parameters were measured: syncytia formation, virus antigen gp120 production, cell survival. Cytotoxicity is also measured in uninfected cells.
(§2) JM (semi mature human T-cell from lymphoblastoid leukemia) infected with HIV-I U4550
IC50=concentration of drug which reduces cell growth by 50%.

The test system of a further data set is HIV-I U4550. Put plainly: Anti HIV activity, Ag gp120 production in infected JM cells. The following applies: JM cells infected with HIV-I U4550, 5 days; read-out: EC50 (concentration which reduces Ag gp120 by 50% in infected cell cultures). It is filed as cell-based. The protocol:
as §1, §2
EC50=concentration which reduces Ag gp120by 50% in infected cell cultures.

Setting [4] is: 1% (1 mg/mouse) painted within 10 minutes post UVB exposure.
The mark [5] stands for this setting: 0.5 mg/mouse topical, applied Day 0 after UV exposure, 2MED UVB.
The mark [6] stands for this setting: 0.5 mg/mouse topical, applied Day −3 (3 days prior to UV exposure), 2MED UVB.

Where “and” joins values, the source holds several entries; their conditions need not be identical. Equal values may be shown once.

As to `CCCCCCCCCCCCCCCC(=O)OCC(COC(=O)CCCCCCCCCCCCCCC)(COC(=O)CCCCCCCCCCCCCCC)NC(=O)CNC(=O)CCC(=O)OCC(=O)[C@@]1(O)CC[C@H]2[C@@H]3CCC4=CC(=O)CC[C@]4(C)[C@H]3[C@@H](O)C[C@@]21C` [17-b HC-Suc-GTP3, 17-b Hydrocortisone-21-Suc-Gly-Tris-Tripalmitate], the “Net Ear Swelling” value in data set [1] (setting [4]) is 32.8 10^−2 mm. Further, the entries for the “Mean Net Skin Fold Thickness” value in the data set with UVB induced oedema (setting [5]) and with UVB induced oedema (setting [6]) were 42.7 ± 13.7 10^−2 mm and 90.7 ± 14.8 10^−2 mm, respectively. In the data set on UVB induced oedema, the “activity equivalent to % of the hydrocortisone activity in protecting against UVB induced oedema” value is on record as “approximately 50%”.
Consider `CCCC(=O)O[C@]1(C(=O)CO)CC[C@H]2[C@@H]3CCC4=CC(=O)CC[C@]4(C)[C@H]3[C@@H](O)C[C@@]21C` [17b-Hydrocortisone, 17-Butyrate-Hydrocortisone, reference compound], for which the “Net Ear Swelling” value in data set [1] (setting [4]) was 38.6 10^−2 mm.
In the case of `CCCCCCCCCCCCCCCC(=O)OCC(CO)(COC(=O)CCCCCCCCCCCCCCC)NC(=O)CNC(=O)CCCc1ccc(N(CCCl)CCCl)cc1` [CGTP2], in the data set on B16 melanoma cells (0.5 mg and 1.0 mg groups), the “difference in tumour volume from the Vehicle group (95% level)” value is given as “significant difference”. Moreover, the “Mean (standard error) of B16 tumour volume adjusted for the variation in initial volume” value is recorded as 2.39 (0.523) in the data set on B16 melanoma cells (13/11/95, 0.5 mg); 2.58 (0.523) with B16 melanoma cells (13/11/95, 1.0 mg); 4.07 (0.881) with B16 melanoma cells (15/11/95, 0.5 mg); 3.89 (0.819) with B16 melanoma cells (15/11/95, 1.0 mg); 4.84 (1.06) with B16 melanoma cells (16/11/95, 0.5 mg); 4.23 (0.98) in the data set with B16 melanoma cells (16/11/95, 1.0 mg). The “Mean (standard error) of B16 tumour volume adjusted for the variation in initial volume” value in the data set with B16 melanoma cells (17/11/95, 0.5 mg) is given as 4.90 (1.28); with B16 melanoma cells (17/11/95, 1.0 mg) it was 4.84 (1.19). Further, the “B16 Tumour Volume” value in the data set on B16 melanoma cells (Day 1, drug dose 0.5 mg injected at tumour region) was 0.5 mm^2 and 1.0 mm^2 and 2.7 mm^2; in the data set on B16 melanoma cells (Day 1, drug dose 0.5 mg injected at tumour region, listed as CCTP2) it was 14.1 mm^2; in the data set on B16 melanoma cells (Day 1, drug dose 1.0 mg) it was 8.2 mm^2 and 38.3 mm^2; in the data set on B16 melanoma cells (Day 1, drug dose 1.0 mg, listed as CCTP2), 5 mm^2; in the data set with B16 melanoma cells (Day 3, drug dose 0.5 mg), 0.3 mm^2 and 1 mm^2 and 0 mm^2; with B16 melanoma cells (Day 3, drug dose 0.5 mg, listed as CCTP2), 27.4 mm^2. Further, the “B16 Tumour Volume” value is 32.7 mm^2 and 73.5 mm^2 with B16 melanoma cells (Day 3, drug dose 1.0 mg); 0 mm^2 and 7.7 mm^2 in the data set on B16 melanoma cells (Day 3, drug dose 1.0 mg, listed as CCTP2); 11.8 mm^2 and 19.1 mm^2 and 0.0 mm^2 in the data set on B16 melanoma cells (Day 5, drug dose 0.5 mg); 82.8 mm^2 in the data set with B16 melanoma cells (Day 5, drug dose 0.5 mg, listed as CCTP2); 111.9 mm^2 and 174.1 mm^2 in the data set with B16 melanoma cells (Day 5, drug dose 1.0 mg); 0 mm^2 and 38.3 mm^2 in the data set with B16 melanoma cells (Day 5, drug dose 1.0 mg, listed as CCTP2). The “B16 Tumour Volume” value is 19.8 mm^2 and 13.6 mm^2 and 0 mm^2 in the data set with B16 melanoma cells (Day 6, drug dose 0.5 mg); 167.4 mm^2 with B16 melanoma cells (Day 6, drug dose 0.5 mg, listed as CCTP2); 108.4 mm^2 and 240.3 mm^2 in the data set on B16 melanoma cells (Day 6, drug dose 1.0 mg); 0 mm^2 and 61.6 mm^2 in the data set with B16 melanoma cells (Day 6, drug dose 1.0 mg, listed as CCTP2); 21.8 mm^2 and 35.1 mm^2 and 0 mm^2 in the data set with B16 melanoma cells (Day 7, drug dose 0.5 mg); 152.8 mm^2 with B16 melanoma cells (Day 7, drug dose 0.5 mg, listed as CCTP2). Moreover, the “B16 Tumour Volume” value is 254.1 mm^2 and 215.0 mm^2 in the data set on B16 melanoma cells (Day 7, drug dose 1.0 mg); 0 mm^2 and 92.6 mm^2 in the data set with B16 melanoma cells (Day 7, drug dose 1.0 mg, listed as CCTP2). This molecule also displayed an IC50 in data set [2] of 17.7 µM. Besides, in data set [2], the “activity (cytotoxicity) when delivered to cultures in ethanol” value was “not observed”.
For the molecule `CCCCCCCCCCCCCCCC(=O)OCC(COC(=O)CCCCCCCCCCCCCCC)(COC(=O)CCCCCCCCCCCCCCC)NC(=O)CNC(=O)CCCc1ccc(N(CCCl)CCCl)cc1` [CGTP3, Chlorambucil-Gly-Tris-Tripalmitate], in data set [2], the IC50 came out at 30 µM and the “activity (cytotoxicity) when delivered to cultures in ethanol” value is “not observed”.
For the molecule `CCCCCCCCCCCCCCCC(=O)OCC(CO)(CO)NC(=O)CN` [GTP1, Glycine-Tris-Monopalmitate, reference compound], the “cytotoxicity to JURKAT cells (in words)” value in data set [2] was “no activity”.
Consider `CCCCCCCCCCCCCCCC(=O)OCC(CO)(COC(=O)CCCCCCCCCCCCCCC)NC(=O)CNC(=O)CCC(=O)OCC(=O)C1(O)CCC2C3CCC4=CC(=O)CCC4(C)C3C(O)CC21C` (stereo not drawn) [HC-Suc-GTP2, Hydrocortisone-Suc-Gly-Tris-Dipalmitate], for which the “Net Ear Swelling” value in data set [1] (0.5% (0.5 mg/mouse) painted within 10 minutes post UVB exposure) is listed as 29.8 10^−2 mm. Besides, the “Mean Net Skin Fold Thickness” value with UVB induced oedema (0.5 mg/mouse topical in ethanol, applied Day −5 (5 days prior to UV exposure), 2MED UVB, measured 24 h) is on record as 104.2 ± 14.7 10^−2 mm; with UVB induced oedema (setting [5]), 60.6 ± 8.6 10^−2 mm; in the data set on UVB induced oedema (setting [6]), 94.3 ± 10.3 10^−2 mm; in the data set with UVB induced oedema (1 mg/mouse (1% w/v) topical, applied Day 0 after UV exposure), 57.5 ± 10.9; in the data set with UVB induced oedema (1 mg/mouse (1% w/v) topical, applied Day −3), 60.8 ± 8.8. Moreover, the “activity equivalent to % of the hydrocortisone activity in protecting against UVB induced oedema” value in the data set on UVB induced oedema is “approximately 50%”.
As to `O=c1[nH]cnc2c1ncn2[C@H]1CC[C@@H](CO)O1` [ddI, reference compound], the IC50 in data set [3] is greater than 100 µM. For the same molecule, in the data set on HIV-I U4550, the EC50 stood at 1000 nM.
